Drawing on ChEMBL document CHEMBL3507680, “University of Dundee, Gates Library screen for HepG2 cell viability”, this text covers cytotoxicity for 40 molecules.

A short description of this data set: Human HepG2 cell viability assay in 384 well format. Format: toxicity, cell-based. More on the design: dose 125 nL, time 70.5 hour; cytotoxicity at 70.5 h: concentration not given beside the values. To be noted: HepG2 cells, read-out: Inhibition.
For `O=S(=O)(Cc1c(F)cccc1Cl)Cc1nnnn1C1CC1`, the cytotoxicity at 70.5 h is -13.2%.
For `CC(C)Cc1ncc2c(n1)CN(c1nccc(N(C)C)n1)C2` the value was -8.35%; for `c1coc(CN2Cc3nccn3CC(Cn3cncn3)C2)c1` (stereo not given), 1.12%.
Turning to `CCc1nc(CNc2cc(C)nc(-c3cccnc3)n2)cs1`, the cytotoxicity at 70.5 h is 24.1%.
Under `Cc1nc(N(C)C)ncc1C(=O)N(Cc1ccncc1)CC1CCCO1` (stereo not given) stands -4.9%.
For `CC(=O)N1[C@H](Cn2cncn2)C[C@@H]2CN(Cc3ccncc3)CC[C@@H]21` the value was -3.75%; for `CCN1CCN(c2nc(C(C)C)nc3c(C)nn(CC)c23)CC1`, 13.6%; for `CCCC1CN(CCOC)C(=O)c2cccnc2O1` (stereo not given), -8.12%.
For `Cn1ncc2c(N3CCCN(C(=O)c4ccsc4)CC3)ncnc21` the value was -1.19%; for `Cc1ccsc1CN(C)Cc1ncccc1C(=O)O`, -2.01%; for `CCS(=O)(=O)NCCNC(=O)N(Cc1ccc(C)o1)C(C)C`, -13.2%.
As to `Cc1cccc(C(C(=O)NC(C)(C)CN2CCOCC2)N(C)C)c1` (stereo not given), the cytotoxicity at 70.5 h stood at 25.2%.
Take `CCC1CCCCN1C(=O)c1ccnc(N(C)C)c1` (stereo not given): the cytotoxicity at 70.5 h was -0.362%.
In the case of `CCCc1cnc(C)nc1N1CCC2(CCCO2)CC1`, the cytotoxicity at 70.5 h was -1.28%.
Take `COc1ccc(C(C)NCc2cnnn2C)cc1F` (stereo not given): the cytotoxicity at 70.5 h was 2.17%.
Regarding `O=C1N(Cc2ccncc2)CCC12CCCNC2` (stereo not given), the cytotoxicity at 70.5 h is -4.76%.
Regarding `Cc1nonc1CN1CC[C@@](O)(C2CCOCC2)[C@H](C)C1`, the cytotoxicity at 70.5 h is -11%.
With `CN(C)S(=O)(=O)N1CCN(c2ccnc(N3CCCC3)n2)CC1`, the cytotoxicity at 70.5 h is -12.4%.
For `O=C(Nc1ccc(-n2cccn2)c(F)c1)C1CCN(C(=O)C2CC2)CC1` the value was -0.357%; for `Cc1cnn(CC2CCCCN2C(=O)c2ccccc2-n2cccn2)c1` (stereo not given), -17.3%; for `Cc1cnc(N2C[C@@H]3[C@@H](C2)OCC(=O)N3CCN(C)C)nc1`, -3.72%.
For `COCCC(=O)N1CCC2(CCN(Cc3ccc(OC)c(F)c3)C2)C1` (stereo not given) the value was -93.9%; for `Cc1nc(CNCC(C)c2nc3ccccc3o2)cs1` (stereo not given), 0.552%.
Under `CCC(CC)(CNC(C)=O)NC(C)c1ccccc1` (stereo not given) stands 3%; under `Cc1nc(CN2CCOCC23CCN(c2ccc(C#N)cc2)CC3)cs1`, -2.38%.
For `O=C(CCCOCc1ccccc1)N1CCCC1c1ccccn1` (stereo not given), the cytotoxicity at 70.5 h is -12.6%.
For `Cc1csc2cc(C(=O)NC3CC3)cnc12` the value was -1.57%; for `CCc1nc(CN2CCN(c3ncnc4cc(F)ccc34)CC2)no1`, 24.8%; for `CNC(=O)C1(N2CCC[C@H]2C(=O)NC2CCOCC2)CCOCC1`, -6.78%.
Under `O[C@]12CC[C@H](CC1)N(Cc1ccc(F)cc1)C2CN1CCOCC1` (stereo not given in full) stands -7.54%; under `O=C1N(Cc2ccc(F)c(F)c2)CCCC1(O)CNCC1CCCCC1` (stereo not given), 18.7%; under `Cc1nc(CN2C[C@@H]3CN(C(=O)CC(F)(F)F)C[C@@H]3C2=O)cs1`, -9.18%.
Under `CCOc1ccc(N2CCC(C(O)c3ccccc3)CC2)nn1` (stereo not given) stands 51.9%; under `Cc1ccc(CN(C)C(=O)c2cccc(NC(N)=O)c2)o1`, -11.5%; under `CCN(C(=O)c1ccc(-n2ncc(C#N)c2N)cc1)C1CCCC1`, -12.1%.
For `O=c1[nH]c(CCN2CCN(CC(F)(F)F)CC2)nc2ccccc12`, the cytotoxicity at 70.5 h was -4.17%.
For the molecule `COCc1noc(CCNc2ncnc3c2CCNCC3)n1`, the cytotoxicity at 70.5 h is -8.6%.
As to `CCCc1cc(C(=O)N(C)Cc2cnn(-c3cccc(OC)c3)c2)[nH]n1`, the cytotoxicity at 70.5 h is -6.08%.
For `Cc1cc(C(F)F)nn1CC(=O)NCc1nccn1C` the value was -3.8%.
Under `COCc1nccc(C2CCCN(Cc3ccc(SC)cc3)C2)n1` (stereo not given) stands -3.62%.
